# Data from patent publication US20190046558A1, “COMPOSITION AND METHODS OF INHIBITING AMYLASE-MEDIATED HYDROLYSIS OF ALPHA (1 to 4)-LINKED GLUCOSE POLYMERS” (priority 2015, published 2019).
# Target: T1, porcine pancreatic α-amylase (Sus scrofa, UniProt P00690)
# T1 construct: purchased Megazyme, Inc
# T1 sequence (P00690 16-511): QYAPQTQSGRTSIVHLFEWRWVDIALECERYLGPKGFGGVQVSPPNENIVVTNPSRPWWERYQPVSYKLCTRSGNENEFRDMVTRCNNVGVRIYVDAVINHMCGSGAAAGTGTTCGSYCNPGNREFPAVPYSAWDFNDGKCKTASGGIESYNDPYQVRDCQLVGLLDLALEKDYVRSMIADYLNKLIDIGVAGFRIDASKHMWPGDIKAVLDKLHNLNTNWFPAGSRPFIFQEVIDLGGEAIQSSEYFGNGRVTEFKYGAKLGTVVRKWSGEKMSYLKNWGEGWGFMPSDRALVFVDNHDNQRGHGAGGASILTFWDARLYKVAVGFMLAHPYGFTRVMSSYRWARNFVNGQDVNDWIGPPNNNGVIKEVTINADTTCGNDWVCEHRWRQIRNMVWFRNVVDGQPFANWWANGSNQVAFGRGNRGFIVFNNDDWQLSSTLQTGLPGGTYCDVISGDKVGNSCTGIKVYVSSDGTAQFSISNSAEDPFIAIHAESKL
# Assay: colorimetric starch-iodine assay of amylase-mediated starch hydrolysis
# Type: biochemical
# Details: read-out: Fraction Inhibited (starch-iodine assay)
# Experimental: The effectiveness of GMα (panel A) and GMβ (panel) to inhibit starch hydrolysis (1 mg/ml) mediated by porcine pancreatic α-amylase (1 μM) is shown as a function of the concentration of GMα and GMβ. The Fraction of Reaction Inhibited was calculated using U/ml values determined from the iodine-starch assay as described by (ref), with U/ml=(As62 control−As62 sample)/(As62 starch×20 min×0.1 ml reaction volume), a value that can be interpreted as mg of starch hydrolyzed per minute. The Fraction of “Unfolded” Starch was calculated in the absence of enzyme as A562 taken in the presence of GMα (panel C) and GMβ (panel D) divided by A562 taken in the absence of the GM. General solution conditions are 20 mM potassium phosphate, pH 7, 30° C.;
# A standard curve was constructed using 100 μL of 6 concentrations (0-1.0 mg/ml) and 100 μL of soluble starch. A total of 100 μL of 1 mg/ml of soluble starch+/−varying concentrations of GMs were incubated for 20 minutes at 30° C.+/−5 μL enzyme, for a total concentration of 1 μM PPA/well, and the absorbance read at 520 nm.
compound,measurement,value
"C[C@H]1O[C@H](O[C@H]2[C@H](O)[C@@H](O)[C@@H](O[C@H]3[C@H](O)[C@@H](O)C(O)O[C@@H]3CO)O[C@@H]2CO)[C@H](O)[C@@H](O)[C@@H]1N[C@H]1C=C(CO)[C@@H](O)[C@H](O)[C@H]1O (stereo partly shown) [Acarbose, acarbose]",inhibition at 400 µM,79%
